Measurements: PMC9144329, “Multitarget Action of Xanthones from Garcinia mangostana against α-Amylase, α-Glucosidase and Pancreatic Lipase” (Molecules, 2022)
Like-named read-outs stand apart in the source and are kept apart here.

Tests used:
[1] = molecular target: T1, α-amylase (AA) type VI-B from porcine pancreas (Sus scrofa, UniProt P00690); test: AA inhibition assay; conditions: for IC50: α-Amylase IC50 (µM), evaluated range 6.25 µM–1000 µM, mean of n = 3 ± SD
T1 sequence (P00690 16-511): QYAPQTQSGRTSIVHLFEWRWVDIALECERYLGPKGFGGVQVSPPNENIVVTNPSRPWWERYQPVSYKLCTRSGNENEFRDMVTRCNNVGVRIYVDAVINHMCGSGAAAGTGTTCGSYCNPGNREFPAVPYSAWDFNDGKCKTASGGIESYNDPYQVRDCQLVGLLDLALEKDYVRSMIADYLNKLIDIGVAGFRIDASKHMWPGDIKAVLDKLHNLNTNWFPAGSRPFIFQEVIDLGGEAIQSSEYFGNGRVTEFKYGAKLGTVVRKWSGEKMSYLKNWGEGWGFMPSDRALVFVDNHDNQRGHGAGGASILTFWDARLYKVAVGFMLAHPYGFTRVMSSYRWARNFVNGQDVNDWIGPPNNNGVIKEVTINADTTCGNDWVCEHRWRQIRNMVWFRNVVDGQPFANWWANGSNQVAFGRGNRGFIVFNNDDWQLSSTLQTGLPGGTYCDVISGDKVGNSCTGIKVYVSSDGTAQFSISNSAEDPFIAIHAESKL

PL = conditions: cited from earlier work
α-glucosidase = conditions: cited from earlier work
[2] = molecular target: T2, α-glucosidase (AG) type I from Saccharomyces cerevisiae (Saccharomyces cerevisiae, UniProt P53341); test: biochemical; assay type: biochemical; design: purchased Sigma-Aldrich L-SLBX6245
T2 sequence (P53341 whole entry): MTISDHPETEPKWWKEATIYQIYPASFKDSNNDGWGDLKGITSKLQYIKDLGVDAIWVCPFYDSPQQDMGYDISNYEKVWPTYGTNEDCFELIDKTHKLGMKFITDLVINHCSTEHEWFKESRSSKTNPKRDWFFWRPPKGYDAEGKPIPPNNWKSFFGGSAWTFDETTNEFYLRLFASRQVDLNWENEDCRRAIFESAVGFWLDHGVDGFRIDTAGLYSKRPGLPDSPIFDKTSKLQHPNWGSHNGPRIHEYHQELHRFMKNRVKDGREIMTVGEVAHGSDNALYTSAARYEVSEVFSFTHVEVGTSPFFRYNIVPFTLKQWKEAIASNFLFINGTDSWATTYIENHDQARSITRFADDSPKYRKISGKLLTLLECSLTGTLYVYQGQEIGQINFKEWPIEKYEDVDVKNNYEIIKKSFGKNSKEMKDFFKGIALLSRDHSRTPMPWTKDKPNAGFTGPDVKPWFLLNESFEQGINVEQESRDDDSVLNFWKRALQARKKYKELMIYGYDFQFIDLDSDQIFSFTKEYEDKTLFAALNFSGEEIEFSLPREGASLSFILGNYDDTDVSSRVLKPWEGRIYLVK

[3] = molecular target: T2, α-glucosidase (AG) type I from Saccharomyces cerevisiae; test: biochemical
[4] = molecular target: T3, pancreatic lipase type II (PL) from porcine pancreas (Sus scrofa, UniProt P00591); test: PL inhibition assay; assay type: biochemical; conditions: for IC50: evaluated range 6.25 µM–1000 µM, mean of n = 3 ± SD
T3 construct: pancreatic lipase type II (PL) from porcine pancreas; purchased Sigma-Aldrich L-SLBD2433V; host or cells: porcine pancreas
T3 sequence (P00591 1-450): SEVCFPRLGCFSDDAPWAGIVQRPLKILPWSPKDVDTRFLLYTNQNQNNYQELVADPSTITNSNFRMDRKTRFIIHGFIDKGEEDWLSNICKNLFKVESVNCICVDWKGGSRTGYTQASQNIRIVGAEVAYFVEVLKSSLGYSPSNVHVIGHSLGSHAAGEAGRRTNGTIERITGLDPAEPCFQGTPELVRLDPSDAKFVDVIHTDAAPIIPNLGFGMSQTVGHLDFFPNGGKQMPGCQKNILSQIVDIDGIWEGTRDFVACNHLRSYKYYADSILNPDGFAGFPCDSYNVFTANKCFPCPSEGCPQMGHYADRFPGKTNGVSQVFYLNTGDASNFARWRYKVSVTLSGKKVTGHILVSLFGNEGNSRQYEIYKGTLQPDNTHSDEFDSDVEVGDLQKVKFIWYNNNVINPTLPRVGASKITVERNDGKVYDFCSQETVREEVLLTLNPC

[5] = molecular target: T3, pancreatic lipase type II (PL) from porcine pancreas; test: Kinetic study on PL; assay type: biochemical; conditions: for Ki: substrate p-nitrophenyl dodecanoate
[6] = molecular target: T1, α-amylase (AA) type VI-B from porcine pancreas; test: Kinetic study on AA; assay type: biochemical; design: α-amylase (AA) type VI-B from porcine pancreas; purchased Sigma-Aldrich L-SLBP4061V; host or cells: porcine pancreas; conditions: for Ki: substrate starch
α-amylase = conditions: cited from earlier work; for % inhibition of AA, previous studies: at a concentration of 100 µM
[7] = molecular target: T2, α-glucosidase (AG) type I from Saccharomyces cerevisiae
[8] = ref 17, 37, read-out: IC50 against PL, previous studies
[9] = ref 39, read-out: IC50 against AG, Ryu and collaborators
[10] = substrate p-nitrophenyl-α-D-glucopyranoside, read-out: α-Glucosidase Ki
[11] = α-Glucosidase IC50 (µM), evaluated range 6.25 µM–1000 µM, mean of n = 3 ± SD
[12] = ref 31-34, read-out: IC50 against PL
[13] = ref 10, read-out: IC50 against AG, Li and collaborators
[14] = ref 53, read-out: IC50 against AG, Vongsak and collaborators
[15] = ref 31-34, read-out: IC50 against α-amylase

Ki [2, 10] [µM] | Compound | IC50 [1] [µM] | IC50 (α-glucosidase; [9]) [µM] | IC50 [3, 11] [µM] | IC50 [4] [µM] | type of inhibition against PL (in words) [5] | Ki [5] [µM] | type of inhibition on AA (in words) [6] | Ki [6] [µM] | other results
248 | CC(C)=CCc1c(O)c(CC=C(C)C)c2oc3c(O)cccc3c(=O)c2c1O [Compound 2, 8-deoxygartanin] | 166 ± 4.1 | 21.5 | 248 ± 4 | 326 ± 7.1 | non-competitive inhibitors | 326 | non-competitive type of inhibitor | 166 | IC50 (PL; [8]): 50 µM
124 | CC(C)=CCc1c(O)c(CC=C(C)C)c2oc3c(O)ccc(O)c3c(=O)c2c1O [Compound 3, gartanin] | > 1000 | 10 | 124 ± 8.2 | 135 ± 1.5 | uncompetitive inhibitors | 130 | – | – | IC50 (PL; [8]): 12 µM
– | COc1c(O)cc2oc3cc(O)c(CC=C(C)C)c(O)c3c(=O)c2c1CC=C(C)C [Compound 4, α-mangostin] | 318 ± 4.3 | 5 | – | 50.6 ± 6.7 | non-competitive inhibitors | 50.6 | competitive type inhibitors | 240 | IC50 (PL; [8]): 47.3 µM; IC50 (PL; [12]): 5 µM; IC50 (α-glucosidase; [13]): 10 µM; IC50 (α-glucosidase; [14]): 29.2 µM; Ki [2]: 31.6 µM; IC50 [3]: 31.6 ± 2.6 µM; % inhibition of AA, previous studies (α-amylase): 60%; IC50 (α-amylase; ref 17, read-out: IC50 against AA, previous studies): 29.6 µM
– | CC(C)=CCc1c(O)cc2oc3cc(O)c(O)c(CC=C(C)C)c3c(=O)c2c1O [Compound 5, γ-mangostin] | 333 ± 4.5 | 1.5 | 84.7 ± 6.7 | 67.1 ± 2.8 | – | 57.2 | competitive type inhibitors | 139 | IC50 (PL; [12]): 10 µM; IC50 (α-glucosidase; [13]): 5 µM; IC50 (α-glucosidase; [14]): 4.2 µM; Ki [2]: 84.7 µM; % inhibition of AA, previous studies (α-amylase): 67.3%
37.2 | COc1c(O)cc2oc3cc4c(c(O)c3c(=O)c2c1CC=C(C)C)CCC(C)(C)O4 [Compound 7, 3-isomangostin] | > 1000 | – | – | > 1000 | – | – | – | – | inhibitory activity on AA (in words) [1]: completely lost; IC50 [3]: 37.2 ± 4.1 µM; inhibition in the catalytic activity of PL (in words) [4]: did not cause any inhibition
– | CC1(C)CCc2c(cc3oc4cc(O)c5c(c4c(=O)c3c2O)CCC(C)(C)O5)O1 [Compound 8, BR-xanthone A] | > 1000 | – | – | > 1000 | – | – | – | – | inhibitory activity on AA (in words) [1]: completely lost; inhibition in the catalytic activity of AG (in words) [7]: did not cause any inhibition; melting point: 160 to 162 °C; IC50 [3]: > 1000 µM; inhibition in the catalytic activity of PL (in words) [4]: did not cause any inhibition
– | COc1c(O)cc2oc3cc(O)c(CCC(C)C)c(O)c3c(=O)c2c1CCC(C)C [Compound 9, tetrahydro-α-mangostin] | 90.1 ± 6 | – | – | 454.6 ± 1.9 | mixed inhibitors | 405 | competitive type inhibitors | 90.1 | Ki [2]: 34.2 µM; type of inhibition of AG (in words) [2]: competitive inhibitors; IC50 [3]: 34.2 ± 1.8 µM
– | CCCCCOc1cc2oc3cc(OCCCCC)c(OC)c(CC=C(C)C)c3c(=O)c2c(O)c1CC=C(C)C [Compound 10, 3,6-di-pentoxy-α-mangostin] | > 1000 | – | > 1000 | > 1000 | – | – | – | – | inhibition in the catalytic activity of AG (in words) [7]: did not cause any inhibition; inhibition in the catalytic activity of PL (in words) [4]: did not cause any inhibition
– | COc1cc2oc3c(C)c(OC)c(CC=C(C)C)c(O)c3c(=O)c2c(CC=C(C)C)c1OC [Compound 11, 3,6-di-methoxy-4-methyl-α-mangostin] | > 1000 | – | > 1000 | 59.4 ± 3.8 | mixed inhibitors | 59.4 | – | – | inhibitory activity on AA (in words) [1]: completely annuls the activity; inhibition in the catalytic activity of AG (in words) [7]: did not cause any inhibition
– | O=C(c1cc(O)ccc1O)c1c(O)cc(O)cc1O[C@@H]1O[C@H](CO)[C@@H](O)[C@H](O)[C@H]1O [Garcimangophenone B, reference compound] | – | – | – | – | – | – | – | – | IC50 (α-amylase; [15]): 12.2 µM
– | Garcimangophenones A [Garcimangophenone A, reference compound] | – | – | – | – | – | – | – | – | IC50 (α-amylase; [15]): 9.3 µM
– | mangoxanthone A [reference compound] | – | – | – | – | – | – | – | – | IC50 (α-glucosidase; ref 31-34, read-out: IC50 against α-glucosidase): 29.1 µM; IC50 (α-amylase; [15]): 22.7 µM

Compound | Ki [2, 10] [µM] | IC50 [1] [µM] | IC50 (α-glucosidase; [9]) [µM] | IC50 [3, 11] [µM] | IC50 [4] [µM] | type of inhibition against PL (in words) [5] | Ki [5] [µM] | type of inhibition on AA (in words) [6] | Ki [6] [µM] | other results
COc1c(O)cc2oc3cc4c(c(O)c3c(=O)c2c1CC=C(C)C)C=CC(C)(C)O4 [Compound 1, 9-hydroxycalabaxanthone] | 154 | > 1000 | 34.2 | 157 ± 2.1 | 138 ± 6.8 | non-competitive inhibitors | 138 | – | – | inhibitory activity on AA (in words) [1]: completely lost; IC50 (PL; [8]): 12 µM; type of inhibition of AG (in words) [2]: uncompetitive inhibitor
COc1cc2oc3cc(OC)c(OC)c(CC=C(C)C)c3c(=O)c2c(O)c1CC=C(C)C [Compound 6, fuscaxanthone C] | 0.3 | 164.4 ± 0.9 | – | 33.3 ± 4.1 | 69.2 ± 4.9 | mixed inhibitors | 69.2 | competitive type inhibitors | 28.6 | melting point: 118 to 120 °C; type of inhibition of AG (in words) [2]: competitive inhibitors
